The values that follow come from the supplement of paper PMC11424490.

Test [1] relates to SW837. Briefly: fitted bottom plateau of viability curve, % of DMSO control; higher = less maximal inhibition; extreme values may be limits of the assay. In outline: (§1)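 Relative IC50 values, averaged over replicates, and lower plateaus were obtained by four-parameter nonlinear fitting of percent-of-control viability data, normalised to DMSO controls. Viability was read as CellTiter-Glo luminescence after single-compound dose series had been incubated for 72 h (NCI-H2122, NCI-H358) or 144 h (SW837).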

Test [2] concerns NCI-H2122. The test is described as above. In outline:
as §1

The test system of test [3] is NCI-H358. The test is described as above. The procedure, abridged:
as §1

The subject of test [4] is SW837. The test can be described thus: relative IC50 of cell viability (CellTiter-Glo); higher = less potent. The procedure, abridged: as §1
On the technique in general: Cellular ATP, detected with luciferase, serves as a proxy for viable cell number.

The test system of test [5] is NCI-H2122. The test is described as above. In outline: as §1
Test [6] concerns NCI-H358. The description is as above. The procedure, abridged:
as §1

For `Cc1nc(Nc2n[nH]c3c2CN(C(=O)N[C@H](CN(C)C)c2ccccc2)C3(C)C)c2sccc2n1` (top concentration tested 9999.9 nM), the “fitted bottom plateau of viability curve” value in test [1] amounted to 0%; in test [2], 11.9%; in test [3], 5.57%. The “relative IC50 of cell viability” value in test [4] was 907 nM; in test [5] it was 11.9 nM; in test [6] it was 18.1 nM.
Turning to `CNS(=O)(=O)Nc1nccc(Cc2c(C)c3ccc(Oc4ncccn4)cc3oc2=O)c1F` (top concentration tested 10000 nM), the “fitted bottom plateau of viability curve” value in test [1] amounted to 18.8%; in test [2], 1.94%; in test [3] it was 2.19%. For the same compound, the entries for the “relative IC50 of cell viability” value in test [4], in test [5] and in test [6] were 1570 nM, 130 nM and 513 nM, respectively.
Take `Cc1c(-c2c(-c3ccc(F)o3)sc3ncnc(O[C@H](Cc4ccccc4OCc4ccnn4CC(F)(F)F)C(=O)O)c23)ccc(OCCN2CCN(C)CC2)c1Cl` (top concentration tested 10000 nM): the “fitted bottom plateau of viability curve” value in test [1] came to 101%; in test [2], 34.5%; in test [3] it was 0%. Besides, the entries for the “relative IC50 of cell viability” value in test [5] and in test [6] were 3790 nM and 3590 nM, respectively.
On to `COc1ncc(-c2ccc3nccc(-c4ccnnc4)c3c2)cc1NS(=O)(=O)c1ccc(F)cc1F` (top concentration tested 50000 nM), for which the “fitted bottom plateau of viability curve” value was found to be 3.09% in test [1], 2.3% in test [2] and 0.391% in test [3]. In addition, the “relative IC50 of cell viability” value in test [4] was determined as 677 nM; in test [5] it was 43.6 nM; in test [6], 32.3 nM.
On to `C[C@@H]1CN(CC(=O)Nc2ccc3c(c2)Cc2cccc(-c4cc(=O)cc(N5CCOCC5)o4)c2S3)C[C@H](C)O1` (top concentration tested 50000 nM), for which the figures for the “fitted bottom plateau of viability curve” value in test [1], in test [2] and in test [3] were 0%, 31% and 8.33%, respectively. The “relative IC50 of cell viability” value in test [4] is 39200 nM; in test [5] it was 11800 nM; in test [6], 9010 nM.
On to `Cc1cc(C)c(CNC(=O)c2cc(-c3ccc(N4CCNCC4)nc3)cc3c2c(C)cn3C2CCCC2)c(=O)[nH]1` (top concentration tested 50000 nM), for which the “fitted bottom plateau of viability curve” value in test [1] came to 0.31%; in test [2], 24.3%; in test [3] it was 0.467%. In addition, the “relative IC50 of cell viability” value in test [4] is 10500 nM; in test [5], 17400 nM; in test [6], 11500 nM.
Take `CC1(C)CCC(c2ccc(Cl)cc2)=C(CN2CCN(c3ccc(C(=O)NS(=O)(=O)c4ccc(N[C@H](CCN5CCOCC5)CSc5ccccc5)c(S(=O)(=O)C(F)(F)F)c4)cc3)CC2)C1` [ABT-263] (top concentration tested 10000 nM): the “fitted bottom plateau of viability curve” value in test [1] was found to be 46%; in test [2], 50%; in test [3], 0%. In addition, the “relative IC50 of cell viability” value in test [5] was 6240 nM; in test [6] it was 6290 nM.
Take `C=CC(=O)N1CCN(c2nc(=O)n(-c3c(C)ccnc3C(C)C)c3nc(-c4c(O)cccc4F)c(F)cc23)[C@@H](C)C1` [AMG510 / Sotorasib] (top concentration tested 1000 nM): the “fitted bottom plateau of viability curve” value was determined as 39.6% in test [1], 12% in test [2] and 2.09% in test [3]. The “relative IC50 of cell viability” value in test [4] was determined as 57.7 nM; in test [5], 43 nM; in test [6], 20.4 nM.
For `COc1cc(CCc2cc(NC(=O)c3ccc(N4CC(C)NC(C)C4)cc3)n[nH]2)cc(OC)c1` (stereo not drawn) [AZD4547] (top concentration tested 10000 nM), the entries for the “fitted bottom plateau of viability curve” value in test [1], in test [2] and in test [3] were 86.8%, 68% and 0%, respectively. The “relative IC50 of cell viability” value is 4100 nM in test [5] and 5730 nM in test [6].
Take `CCN1CCN(Cc2ccc(Nc3ncc(F)c(-c4cc(F)c5nc(C)n(C(C)C)c5c4)n3)nc2)CC1` [Abemaciclib] (top concentration tested 10000 nM): the figures for the “fitted bottom plateau of viability curve” value in test [1], in test [2] and in test [3] were 0%, 35.8% and 0%, respectively. The “relative IC50 of cell viability” value in test [4] is 5140 nM; in test [5], 960 nM; in test [6], 297 nM.
With `CN(C)C/C=C/C(=O)Nc1cc2c(Nc3ccc(F)c(Cl)c3)ncnc2cc1O[C@H]1CCOC1` [Afatinib] (top concentration tested 10000 nM), the “fitted bottom plateau of viability curve” value in test [1] came out at 0%; in test [2] it was 2.68%; in test [3] it was 0%. Besides, the results for the “relative IC50 of cell viability” value in test [4], in test [5] and in test [6] were 5660 nM, 1220 nM and 176 nM, respectively.
In the case of `Nc1cc(C(F)(F)F)c(-c2cc(N3CCOCC3)nc(N3CCOCC3)n2)cn1` [BKM120] (top concentration tested 10000 nM), the “fitted bottom plateau of viability curve” value is 20.6% in test [1], 3.49% in test [2] and 7.46% in test [3]. The entries for the “relative IC50 of cell viability” value in test [4], in test [5] and in test [6] were 1790 nM, 921 nM and 1310 nM, respectively.
Consider `Cc1nc(NC(=O)N2CCC[C@H]2C(N)=O)sc1-c1ccnc(C(C)(C)C(F)(F)F)c1` [BYL-719] (top concentration tested 10000 nM), for which the “fitted bottom plateau of viability curve” value turned out to be 77.5% in test [1], 17.8% in test [2] and 10.9% in test [3]. Further, the “relative IC50 of cell viability” value turned out to be 2530 nM in test [5] and 2610 nM in test [6].
For the compound `COC(=O)[C@]12CCC(C)(C)C[C@H]1[C@H]1C(=O)C=C3[C@@]4(C)C=C(C#N)C(=O)C(C)(C)[C@@H]4CC[C@@]3(C)[C@]1(C)CC2` [Bardoxolone methyl] (top concentration tested 1000 nM), the “fitted bottom plateau of viability curve” value is 0% in test [1], 38.7% in test [2] and 0.645% in test [3]. For the same compound, the “relative IC50 of cell viability” value in test [4] turned out to be 200 nM; in test [5], 319 nM; in test [6], 113 nM.
Consider `O=C(/C=C/c1cccc(S(=O)(=O)Nc2ccccc2)c1)NO` [Belinostat] (top concentration tested 10000 nM), for which the entries for the “fitted bottom plateau of viability curve” value in test [1], in test [2] and in test [3] were 0.0148%, 1.64% and 0.339%, respectively. For the same compound, the “relative IC50 of cell viability” value is 1050 nM in test [4], 274 nM in test [5] and 491 nM in test [6].
For the compound `Cc1c(N)nc([C@H](CC(N)=O)NC[C@H](N)C(N)=O)nc1C(=O)N[C@H](C(=O)N[C@H](C)[C@@H](O)[C@H](C)C(=O)N[C@H](C(=O)NCCc1nc(-c2nc(C(=O)NCCC[S+](C)C)cs2)cs1)[C@@H](C)O)[C@@H](OC1OC(CO)C(O)C(O)C1OC1OC(CO)C(O)C(OC(N)=O)C1O)c1cnc[nH]1` (stereo partly drawn) [Bleomycin] (top concentration tested 10000 nM), the “fitted bottom plateau of viability curve” value in test [1] is 4.05%; in test [2] it was 45.4%; in test [3], 12.7%. For the same compound, the “relative IC50 of cell viability” value turned out to be 438 nM in test [4], 1200 nM in test [5] and 1380 nM in test [6].
For `CC(C)C[C@H](NC(=O)[C@H](Cc1ccccc1)NC(=O)c1cnccn1)B(O)O` [Bortezomib] (top concentration tested 999.9 nM), the “fitted bottom plateau of viability curve” value in test [1] came to 0.446%; in test [2], 9.55%; in test [3], 0.755%. Besides, the “relative IC50 of cell viability” value in test [4] came to 5.91 nM; in test [5] it was 16.5 nM; in test [6], 9.81 nM.
